Test [1] concerns human large intestine cancer cell line (HCT-116). The experiment in a line: Human large intestine cancer (HCT-116) cell growth inhibition test. The format is cell-based. As to conditions: 72 h, HCT-116, culture for 3 days, sulforhodamine B absorbance. The method in brief:
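HCT-116 cells seeded at 1.0×10^3 cells/well in McCoy's 5a with 10% FBS, then exposed to compound (0.1% DMSO final) for 3 days. Growth measured by sulforhodamine B absorbance; IC50 derived from concentration-inhibition data.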

Test [2] relates to IL-2 production in human peripheral blood mononuclear cell (PBMC). The experiment in a line: Human PBMC CD3/CD28-induced IL-2 production inhibition test. The format is cell-based. As to conditions: 48 h, CD3/CD28 stimulation, incubation for 2 days, ELISA. The text has this: Human Peripheral Blood Mononuclear Cell (PBMC) CD3/CD28-Induced IL-2 Production Inhibition Test
PBMC was separated and collected by using Ficoll-Paque (17-1440-02 manufactured by GE Healthcare Japan Corp.) from blood collected from healthy human adult in the presence of heparin. RPMI1640 medium (manufactured by GIBCO/Thermo Fisher Scientific, Inc., REF. 11875) containing 10% FBS (manufactured by GIBCO/Thermo Fisher Scientific, Inc. REF. 10082) and containing a test compound dissolved in DMSO and 2 μg/mL anti-hCD28 (manufactured by R&D Systems, Inc., Cat. No. MAB342) was added at 100 μL/well to T cell Activation Plate Anti-Human CD3 96-well plate (manufactured by Corning Inc., REF. 354725), and subsequently, a PBMC suspension adjusted such that the number of cells was 2×10^6 cells/mL was added at 100 μL/well (final DMSO concentration: 0.1%). A RPMI1640 medium containing 10% FBS and containing 0.1% DMSO and 2 μg/mL anti-hCD28 was similarly added to wells not supplemented with the test compound. After incubation for 2 days in a carbon dioxide incubator, the culture supernatant was collected. The collected culture supernatant was stored at −20° C. until IL-2 content measurement.
In the measurement of IL-2 content in the culture supernatant, a sandwich ELISA kit Quantikine Human IL-2 (manufactured by R&D Systems, Inc., Cat. No. S2050) was used. The IL-2 content of each sample was calculated from the calibration curve of Standard IL-2 included in the kit. When the amount of IL-2 produced by CD3/CD28 stimulation in the case of the addition of only DMSO was defined as 100%, the rate of inhibition of IL-2 production at each concentration of the test compound was calculated. A test compound concentration inhibiting 50% of IL-2 production was calculated as an IC50 value (nM) from the concentration of the added test compound and the rate of inhibition of IL-2 production by the test compound by using EXSUS (version 8.0.0 or version 8.0.1, manufactured by CAC Exicare Corp.).

The next test has as its target T1, CDK7 (Homo sapiens, UniProt P50613).
T1 construct: purchased Carna Biosciences, Inc. 04-108
The experiment in a line: CDK7 enzyme inhibition test. The format is biochemical. As to conditions: Ki=IC50/(1+S/Km); 33P bound to MBP, [γ-33P]ATP, 30° C. for 20 minutes; read-out: Ki value of CDK7 inhibitory activity. The method in brief: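 Recombinant CDK7 with MBP substrate and [γ-33P]ATP (500 μM solution, diluted into the mix) in HEPES pH 7.4/DTT/Triton X-100/MgCl2, 20 min at 30 °C. TCA-precipitated 33P-MBP counted by scintillation; IC50 from inhibition, Ki = IC50/(1+S/Km).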

SMILES strings stand for the structures.

T1 sequence (P50613 whole entry): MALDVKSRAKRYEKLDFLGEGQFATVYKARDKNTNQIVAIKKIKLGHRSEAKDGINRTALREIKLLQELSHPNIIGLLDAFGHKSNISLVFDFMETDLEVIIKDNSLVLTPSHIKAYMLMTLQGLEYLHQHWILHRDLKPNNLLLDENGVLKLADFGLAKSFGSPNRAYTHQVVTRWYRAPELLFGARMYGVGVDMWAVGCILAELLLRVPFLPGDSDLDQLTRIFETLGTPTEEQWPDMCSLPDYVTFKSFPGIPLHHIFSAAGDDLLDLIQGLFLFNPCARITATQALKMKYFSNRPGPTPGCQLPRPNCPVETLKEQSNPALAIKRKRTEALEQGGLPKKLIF
T1 sequence (P51946 whole entry partner): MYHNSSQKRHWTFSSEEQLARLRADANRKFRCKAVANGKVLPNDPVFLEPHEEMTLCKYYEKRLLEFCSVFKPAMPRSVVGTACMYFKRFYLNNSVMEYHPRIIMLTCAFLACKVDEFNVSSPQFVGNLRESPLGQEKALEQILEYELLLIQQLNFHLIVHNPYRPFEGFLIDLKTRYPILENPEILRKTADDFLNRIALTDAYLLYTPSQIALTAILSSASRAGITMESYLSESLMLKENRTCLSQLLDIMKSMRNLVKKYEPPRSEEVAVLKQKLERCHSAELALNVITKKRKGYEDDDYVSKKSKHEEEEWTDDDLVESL
T1 sequence (P51948 whole entry partner): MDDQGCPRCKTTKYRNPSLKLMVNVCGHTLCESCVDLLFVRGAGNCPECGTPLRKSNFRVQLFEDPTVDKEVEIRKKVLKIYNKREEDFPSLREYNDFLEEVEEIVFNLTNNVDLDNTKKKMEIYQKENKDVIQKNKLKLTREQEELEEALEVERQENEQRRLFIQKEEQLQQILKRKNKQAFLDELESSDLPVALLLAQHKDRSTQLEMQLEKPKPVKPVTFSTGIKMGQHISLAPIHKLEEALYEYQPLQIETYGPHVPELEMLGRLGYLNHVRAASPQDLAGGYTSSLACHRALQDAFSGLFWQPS

`CC1(C)c2[nH]nc(NC(=O)C3([Si](C)(C)C)CCC3)c2CN1C(=O)[C@H](OC(F)F)c1ccccc1` [IV-1180, (R)—N-{5-[2-(Difluoromethoxy)-2-phenylacetyl]-6,6-dimethyl-1,4,5,6-tetrahydropyrrolo[3,4-c]pyrazol-3-yl}-1-(trimethylsilyl)cyclobutanecarboxamide]: the IC50 in test [1] was at most 500 nM; in test [2], at most 50 nM. Also, the Ki at CDK7 was at most 50 nM.

`CCOC[C@@H](NC(=O)N1Cc2c(NC(=O)C3([Si](C)(C)C)CCC3)n[nH]c2C1(C)C)c1ccccc1` [IV-139, (S)—N-(2-Ethoxy-1-phenylethyl)-6,6-dimethyl-3-[1-(trimethylsilyl)cyclobutanecarboxamido]-4,6-dihydropyrrolo[3,4-c]pyrazole-5(1H)-carboxamide]: the figures for the IC50 in test [1] and in test [2] were at most 500 nM and at most 50 nM, respectively. Further, the Ki at CDK7 is at most 50 nM.

For the compound `CC(C)(CO)C(NC(=O)N1Cc2c(NC(=O)C3([Si](C)(C)C)CCC3)n[nH]c2C1(C)C)c1ccccc1` (racemic) [IV-354, N-(3-Hydroxy-2,2-dimethyl-1-phenylpropyl)-6,6-dimethyl-3-[1-(trimethylsilyl)cyclobutanecarboxamido]-4,6-dihydropyrrolo[3,4-c]pyrazole-5(1H)-carboxamide], the IC50 in test [1] is at most 500 nM; in test [2] it was at most 50 nM.

For the compound `CC(C)(O)C[C@@H](NC(=O)N1Cc2c(NC(=O)C3([Si](C)(C)C)CCC3)n[nH]c2C1(C)C)c1ccccc1` [IV-299, (R)—N-(3-Hydroxy-3-methyl-1-phenylbutyl)-6,6-dimethyl-3-[1-(trimethylsilyl)cyclobutanecarboxamido]-4,6-dihydropyrrolo[3,4-c]pyrazole-5(1H)-carboxamide], the half-inhibitory concentration (IC50) is at most 500 nM in test [1] and at most 50 nM in test [2]. Moreover, at CDK7, the Ki is at most 50 nM.

Turning to `CC1(C)c2[nH]nc(NC(=O)C3([Si](C)(C)C)CCC3)c2CN1C(=O)NCC(O)c1ccccc1` (centres unmarked) [IV-450, N-(2-Hydroxy-2-phenylethyl)-6,6-dimethyl-3-[1-(trimethylsilyl)cyclobutanecarboxamido]-4,6-dihydropyrrolo[3,4-c]pyrazole-5(1H)-carboxamide], the IC50 in test [1] was at most 500 nM; in test [2] it was at most 50 nM. Moreover, the Ki at CDK7 is at most 50 nM.

With `CC1(C)c2[nH]nc(NC(=O)C3([Si](C)(C)C)CCC3)c2CN1C(=O)N[C@H](CCCO)c1ccccc1` [IV-283, (R)—N-(4-Hydroxy-1-phenylbutyl)-6,6-dimethyl-3-[1-(trimethylsilyl)cyclobutanecarboxamido]-4,6-dihydropyrrolo[3,4-c]pyrazole-5(1H)-carboxamide], the values for the IC50 in test [1] and in test [2] were at most 500 nM and at most 50 nM, respectively. Further, the Ki on CDK7 is at most 50 nM.

Turning to `COC[C@@H](NC(=O)N1Cc2c(NC(=O)C3([Si](C)(C)C)CCC3)n[nH]c2C1(C)C)c1ccccc1` [IV-123, (S)—N-(2-Methoxy-1-phenylethyl)-6,6-dimethyl-3-[1-(trimethylsilyl)cyclobutanecarboxamido]-4,6-dihydropyrrolo[3,4-c]pyrazole-5(1H)-carboxamide], the IC50 in test [1] is at most 500 nM; in test [2] it was at most 50 nM. For the same compound, the Ki on CDK7 is at most 50 nM.

In the case of `CC1(C)c2[nH]nc(NC(=O)C(C)(C)[Si](C)(C)C)c2CN1C(=O)N[C@H](CO)c1ccccc1` [II-114, (S)—N-(2-Hydroxy-1-phenylethyl)-6,6-dimethyl-3-[2-methyl-2-(trimethylsilyl)propanamido]-4,6-dihydropyrrolo[3,4-c]pyrazole-5(1H)-carboxamide], the IC50 in test [1] is at most 500 nM; in test [2], at most 50 nM. The Ki at CDK7 was at most 50 nM.

As to `CC1(C)c2[nH]nc(NC(=O)C3([Si](C)(C)C)CCC3)c2CN1C(=O)N[C@H](CO)c1ccccc1` [IV-114, (S)—N-(2-Hydroxy-1-phenylethyl)-6,6-dimethyl-3-[1-(trimethylsilyl)cyclobutanecarboxamido]-4,6-dihydropyrrolo[3,4-c]pyrazole-5(1H)-carboxamide], the IC50 in test [1] is at most 500 nM; in test [2], at most 50 nM. Further, the Ki on CDK7 was at most 50 nM.

As to `CCO[C@@H](C(=O)N1Cc2c(NC(=O)C3([Si](C)(C)C)CCC3)n[nH]c2C1(C)C)c1ccccc1` [IV-1188, (R)—N-[5-(2-Ethoxy-2-phenylacetyl)-6,6-dimethyl-1,4,5,6-tetrahydropyrrolo[3,4-c]pyrazol-3-yl]-1-(trimethylsilyl)cyclobutanecarboxamide], the IC50 was at most 500 nM in test [1] and at most 50 nM in test [2]. Moreover, at CDK7, the Ki is at most 50 nM.

For the compound `CC(C)(O)[C@@H](NC(=O)N1Cc2c(NC(=O)C3([Si](C)(C)C)CCC3)n[nH]c2C1(C)C)c1ccccc1` [IV-171, (S)—N-(2-Hydroxy-2-methyl-1-phenylpropyl)-6,6-dimethyl-3-[1-(trimethylsilyl)cyclobutanecarboxamido]-4,6-dihydropyrrolo[3,4-c]pyrazole-5(1H)-carboxamide], the IC50 in test [1] is at most 500 nM; in test [2], at most 50 nM. In addition, at CDK7, the Ki is at most 50 nM.

For the compound `CC[Si](C)(C)C1(C(=O)Nc2n[nH]c3c2CN(C(=O)[C@H](OC)c2ccccc2)C3(C)C)CCC1` [IV-1178, (R)-1-(Ethyldimethylsilyl)-N-[5-(2-methoxy-2-phenylacetyl)-6,6-dimethyl-1,4,5,6-tetrahydropyrrolo[3,4-c]pyrazol-3-yl] cyclobutanecarboxamide], the IC50 in test [1] was at most 500 nM; in test [2], at most 50 nM. Also, the Ki on CDK7 was at most 50 nM.

`CC1(C)c2[nH]nc(NC(=O)C3([Si](C)(C)C)CCC3)c2CN1C(=O)N[C@H](CCCCO)c1ccccc1` [IV-291, (R)—N-(5-Hydroxy-1-phenylpentyl)-6,6-dimethyl-3-[1-(trimethylsilyl)cyclobutanecarboxamido]-4,6-dihydropyrrolo[3,4-c]pyrazole-5(1H)-carboxamide] gave a half-inhibitory concentration (IC50) in test [1] of at most 500 nM. Besides, the Ki at CDK7 was at most 50 nM.

In the case of `CC1(C)c2[nH]nc(NC(=O)C3([Si](C)(C)C)CCC3)c2CN1C(=O)[C@H](OC1CC1)c1ccccc1` [IV-1208, (R)—N-[5-(2-Cyclopropoxy-2-phenylacetyl)-6,6-dimethyl-1,4,5,6-tetrahydropyrrolo[3,4-c]pyrazol-3-yl]-1-(trimethylsilyl)cyclobutanecarboxamide], in test [1], the IC50 was at most 500 nM. On CDK7, the Ki is at most 50 nM.

The compound `COC(C(=O)N1Cc2c(NC(=O)C3([Si](C)(C)C)CCC3)n[nH]c2C1(C)C)c1cccc(F)c1` (centres unmarked) [IV-1404, N-{5-[2-(3-Fluorophenyl)-2-methoxyacetyl]-6,6-dimethyl-1,4,5,6-tetrahydropyrrolo[3,4-c]pyrazol-3-yl}-1-(trimethylsilyl)cyclobutanecarboxamide] had an IC50 in test [1] of at most 500 nM. For the same compound, the Ki at CDK7 was at most 50 nM.

`CC1(C)c2[nH]nc(NC(=O)C3([Si](C)(C)C)CCC3)c2CN1C(=O)O[C@H](CO)c1ccccc1` [IV-2, (S)-2-Hydroxy-1-phenylethyl 6,6-dimethyl-3-[1-(trimethylsilyl)cyclobutanecarboxamido]-4,6-dihydropyrrolo[3,4-c]pyrazole-5(1H)-carboxylate] returned an IC50 in test [1] of at most 500 nM. In addition, at CDK7, the Ki is at most 50 nM.

In turn, `CC1(C)c2[nH]nc(NC(=O)C3([Si](C)(C)C)CCC3)c2CN1C(=O)NCCO` [IV-438, N-(2-Hydroxyethyl)-6,6-dimethyl-3-[1-(trimethylsilyl)cyclobutanecarboxamido]-4,6-dihydropyrrolo[3,4-c]pyrazole-5(1H)-carboxamide] registered an IC50 in test [1] of at most 500 nM. In addition, the Ki at CDK7 is at most 50 nM.

In test [1], `CC(C)O[C@@H](C(=O)N1Cc2c(NC(=O)C3([Si](C)(C)C)CCC3)n[nH]c2C1(C)C)c1ccccc1` [IV-1204, (R)—N-[5-(2-Isopropoxy-2-phenylacetyl)-6,6-dimethyl-1,4,5,6-tetrahydropyrrolo[3,4-c]pyrazol-3-yl]-1-(trimethylsilyl)cyclobutanecarboxamide] came in with a 50% inhibitory concentration (IC50) of at most 500 nM. The Ki on CDK7 was at most 50 nM.

The IC50 is the concentration at which inhibition is half-maximal. The term Ki denotes the dissociation constant of the complex between target and ligand, obtained from inhibition or displacement.

The values above are taken from US10131679B2, “Substituted dihydropyrrolopyrazole compound” (UBE INDUSTRIES, LTD., priority 2014, dated 2018).
